Source: patent EP2650284A1, “Heterocyclic derivatives as metabotropic glutamate receptor modulators” (Merz Pharma GmbH & Co. KGaA, priority 2012, dated 2013)
Read-outs that look alike come from different tables or passages of the source. Each block holds one molecule with its values, some of them ahead of it.

Tests used:
[1] = target: T1, human metabotropic glutamate receptor mGluR5 (Homo sapiens, UniProt P41594); experiment: Cytosolic calcium studies with stably transfected cells (h5CHO), functional assay of mGluR5 receptors; type: cell-based; settings: for h left shift / IC50: h5CHO cells; for IC50: Table A2, negative modulation, compounds added 5 minutes before L-quisqualic acid (~80% of the maximal signal), read-out: hIC50; for EC50: positive modulators, h5CHO cells preincubated with modulator, stimulated by an EC20 concentration of L-glutamate, read-out: hEC50
T1 construct: expressed in transfected cells; host or cells: CHO-K1 (h5CHO), IPTG-inducible
Description: Chinese hamster ovary cells (CHO-K1 cells), stably transfected for inducible expression of a human metabotropic glutamate receptor mGluR5 to form a cell line called h5CHO, are seeded into black clear bottom 96 well plates at a density of 35.000 cells per well. The standard growth medium used (Dulbecco's modified Eagle Medium, DMEM plus L-proline) contains the appropriate inducer isopropyl-β-D-thiogalactopyranosid (IPTG) to achieve optimal receptor expression. One day after seeding the growth medium is exchanged for reconstituted Ca-Kit (Molecular Devices, USA) and incubated for one hour. Ca-Kit is reconstituted in an assay buffer containing 20 mM HEPES pH 7.4, glutamic-pyruvate transaminase, pyridoxal phosphate and sodium pyruvate in Hank's balanced salt solution (HBBS). Agonistic compounds to the receptor elicit increases in cytosolic calcium which can be measured as increases in fluorescence signals by use of a fluorescence imaging plate reader (Molecular Devices). To analyze their potency to negatively modulate the Ca-response test compounds, dissolved in a final DMSO concentration of 0.5%, are added on-line 5 minutes before the agonist to the receptor (L-quisqualic acid at a concentration giving ~80% of the maximal signal). EC50 values for positive allosteric modulators were determined by stimulating the cells which have been preincubated the modulators by an EC20 concentration of L-glutamate.
(§1) The fluorescence signal increase after addition of agonist reflects the increase of cytosolic calcium. Inconsistencies in the amount of cells per well are normalised by using the spatial uniformity correction of the FLIPR operating software Screenworks. The mean of replicated temporal data (n=3-5) is calculated and used for graphical representation. For the evaluation of the pharmacology, the calcium changes in response to different concentrations of agonist or antagonist are determined using a maximum minus minimum (MaxMin) calculation.
(§2) All responses (RFU-values) are determined as percentage of control (= maximum response). EC50 and IC50 are calculated according the logistic equation using XLFit (IDBS, UK) or Prism 4.0 (GraphPad Software, USA). The compounds of the present invention have a potency (EC50 or IC50) within a range of about 0.5 nM to about 100 µM. The left shifts for positive or slient allosteric modulators (PAMs or SAMs, respectively) are determined by comparison of EC50 values from agonist dose response curves run in the presence of 10 µM modulator or vehicle (Vanejevs et al., J. Med. Chem., 2008, 51, 634-647).

mGluR5 receptors = target: T2, mGluR5 receptors (Rattus norvegicus, UniProt P31424); experiment: Cytosolic calcium studies with astrocytes (FLIPR), functional assay of mGluR5 receptors; type: cell-based
T2 construct: Primary astrocyte cultures are prepared from cortices of newborn rats; endogenous in cells; host or cells: primary cortical astrocytes from Sprague-Dawley rat pups (2-4 d old)
Description: Primary astrocyte cultures are prepared from cortices of newborn rats as described by Booher and Sensenbrenner (1972, Neurobiology 2(3):97-105). Briefly, Sprague-Dawley rat pups (2 - 4 d old) are decapitated and neocortices are dissected, disintegrated with a nylon filter (pore size 80 µm) and carefully triturated. The cell suspension is plated on poly-D-lysine pre-coated flasks (Costar, Netherlands) and cultivated in Dulbecco's Modified Eagle's Medium (DMEM, Invitrogen, Germany) supplemented with 10% foetal calf serum (FCS, Sigma, Germany), 4 mM glutamine and 50 µg/ml gentamycin (both Biochrom, Germany) at 37°C in a humidified atmosphere of 5% CO2/ 95% air for 7 days with exchanging the medium at day 2 and 6.
After 7 days in vitro (DIV), cells are shaken overnight at 250 rpm to remove oligodendrocytes and microglia. The next day, astrocytes are rinsed twice with CMF-PBS (calcium- and magnesium-free phosphate buffered saline, Biochrom, Germany), trypsinized and subplated on poly-D-lysine pre-coated 96-well plates (Greiner, Germany) at a density of 40,000 cells/well. 24 h after establishing the secondary culture the astrocytes are rinsed with PBS^++ (phosphate buffered saline, Biochrom, Germany) and fed with astrocyte-defined medium (ADM) consisting of DMEM containing 1x G5-supplement (Invitrogen, Germany), 0.5 µg/ml heparan sulfate, and 1.5 µg/ml fibronectin (both Sigma, Germany) (Miller et al., (1993) Brain Res. 618(1):175-8). 3 days later the medium is exchanged and the cells incubated for another 2-3 days, so that at the time of experiments astrocytes are 14-15 DIV.
The increase of cytosolic calcium after stimulation with the mGluR5 agonist L-quisqualate is measured using a fluorometric imaging plate reader (FLIPR) and the Ca-Kit (both Molecular Devices). Prior to addition of agonist or antagonist the medium is aspirated and cells are loaded for 2 h at RT with 150 µl of loading buffer consisting of Ca-sensitive dye reconstituted in sodium chloride (123 mM), potassium chloride (5.4 mM), magnesium chloride (0.8 mM), calcium chloride (1.8 mM), D-glucose (15 mM), and HEPES (20 mM), pH 7.3. Subsequently, plates are transferred to FLIPR to detect calcium increase with the addition of L-quisqualate (100 nM) measured as relative fluorescence units (RFU). If antagonists are tested, these compounds are pre-incubated for 10 minutes at RT before addition of the respective agonist.
For positive modulators, concentration-response curves for quisqualate are performed in the presence and absence of 10 µM modulator to determine the extent of potentiation / agonist potency increase. Thereafter, concentration-response curves for the positive modulator are performed in the presence of a fixed concentration of quisqualate showing the biggest window for potentiation (normally 10-30 nM).
as §1, §2

[2] = Table A1, left shift of agonist EC50, dose response curves in the presence of 10 µM modulator or vehicle
[3] = Table A1, left shift of quisqualate EC50 in the presence and absence of 10 µM modulator
[4] = Table A1, positive modulators, fixed concentration of quisqualate (normally 10-30 nM), read-out: rEC50

T2 sequence (P31424 21-1203): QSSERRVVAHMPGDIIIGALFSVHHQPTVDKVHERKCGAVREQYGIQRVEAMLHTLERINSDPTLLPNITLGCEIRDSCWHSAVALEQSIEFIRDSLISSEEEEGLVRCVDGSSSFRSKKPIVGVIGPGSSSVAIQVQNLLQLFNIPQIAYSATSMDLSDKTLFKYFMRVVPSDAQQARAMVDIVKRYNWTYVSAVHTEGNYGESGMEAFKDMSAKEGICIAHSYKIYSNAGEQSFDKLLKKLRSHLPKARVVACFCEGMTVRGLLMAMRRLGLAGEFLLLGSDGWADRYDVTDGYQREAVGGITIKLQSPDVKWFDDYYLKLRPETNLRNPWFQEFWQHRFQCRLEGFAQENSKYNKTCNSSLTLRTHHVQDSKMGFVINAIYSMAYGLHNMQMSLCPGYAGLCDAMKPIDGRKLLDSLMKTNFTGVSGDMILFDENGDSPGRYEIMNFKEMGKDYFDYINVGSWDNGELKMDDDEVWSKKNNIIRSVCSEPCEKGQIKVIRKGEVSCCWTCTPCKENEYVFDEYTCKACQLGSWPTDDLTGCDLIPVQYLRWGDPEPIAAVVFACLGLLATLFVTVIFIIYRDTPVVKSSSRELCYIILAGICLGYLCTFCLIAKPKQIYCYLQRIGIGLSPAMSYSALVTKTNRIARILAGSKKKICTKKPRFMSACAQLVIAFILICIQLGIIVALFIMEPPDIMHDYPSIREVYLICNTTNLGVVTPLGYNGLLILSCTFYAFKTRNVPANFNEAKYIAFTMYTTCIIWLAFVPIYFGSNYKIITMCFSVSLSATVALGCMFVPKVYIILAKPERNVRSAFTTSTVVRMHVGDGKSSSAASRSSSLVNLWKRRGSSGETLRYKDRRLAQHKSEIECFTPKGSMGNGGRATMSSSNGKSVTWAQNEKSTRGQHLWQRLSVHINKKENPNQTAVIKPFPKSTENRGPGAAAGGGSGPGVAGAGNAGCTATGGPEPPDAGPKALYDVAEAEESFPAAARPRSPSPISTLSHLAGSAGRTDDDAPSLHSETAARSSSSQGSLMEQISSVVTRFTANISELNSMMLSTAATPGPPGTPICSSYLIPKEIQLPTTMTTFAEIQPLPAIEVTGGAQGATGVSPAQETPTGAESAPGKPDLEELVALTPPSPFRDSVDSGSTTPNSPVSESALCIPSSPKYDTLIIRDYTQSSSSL
T1 sequence (P41594 21-1212): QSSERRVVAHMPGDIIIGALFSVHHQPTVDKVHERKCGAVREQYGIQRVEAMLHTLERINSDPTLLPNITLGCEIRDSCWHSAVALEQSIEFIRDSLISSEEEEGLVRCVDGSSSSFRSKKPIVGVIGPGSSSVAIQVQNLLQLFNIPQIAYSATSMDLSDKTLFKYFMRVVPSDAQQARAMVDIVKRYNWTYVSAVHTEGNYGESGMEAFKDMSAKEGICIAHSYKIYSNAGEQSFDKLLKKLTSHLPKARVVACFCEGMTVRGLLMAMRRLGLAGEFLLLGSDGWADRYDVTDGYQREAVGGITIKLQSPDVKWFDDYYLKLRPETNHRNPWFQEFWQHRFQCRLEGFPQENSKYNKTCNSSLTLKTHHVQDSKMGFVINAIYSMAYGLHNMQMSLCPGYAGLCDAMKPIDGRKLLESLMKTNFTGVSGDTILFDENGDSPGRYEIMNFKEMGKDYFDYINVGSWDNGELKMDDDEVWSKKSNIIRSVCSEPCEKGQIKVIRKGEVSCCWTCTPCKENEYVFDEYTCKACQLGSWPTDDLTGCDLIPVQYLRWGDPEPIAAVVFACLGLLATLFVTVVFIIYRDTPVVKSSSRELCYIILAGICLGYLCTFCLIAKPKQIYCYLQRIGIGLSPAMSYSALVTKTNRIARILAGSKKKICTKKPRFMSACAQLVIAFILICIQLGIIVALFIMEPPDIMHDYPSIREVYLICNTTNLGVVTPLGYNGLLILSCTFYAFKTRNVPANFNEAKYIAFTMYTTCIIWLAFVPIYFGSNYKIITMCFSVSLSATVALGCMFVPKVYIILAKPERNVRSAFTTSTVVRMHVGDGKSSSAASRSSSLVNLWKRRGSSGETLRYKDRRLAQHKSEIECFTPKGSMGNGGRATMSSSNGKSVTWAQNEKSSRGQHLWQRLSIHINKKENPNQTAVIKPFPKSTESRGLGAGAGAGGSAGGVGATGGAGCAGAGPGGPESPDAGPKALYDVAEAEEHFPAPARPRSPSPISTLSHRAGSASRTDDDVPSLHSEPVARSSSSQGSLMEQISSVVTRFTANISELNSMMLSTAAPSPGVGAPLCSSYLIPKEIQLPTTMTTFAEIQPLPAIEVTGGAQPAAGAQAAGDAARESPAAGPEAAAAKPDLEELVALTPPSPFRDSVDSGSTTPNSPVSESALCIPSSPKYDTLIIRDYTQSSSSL

h left shift ([1]; Table A3 (SAMs / very weak PAMs), agonist EC50 shift with 10 µM modulator or vehicle): 1.5-fold
r left shift (mGluR5 receptors; Table A3 (SAMs / very weak PAMs), quisqualate EC50 shift with 10 µM modulator): 1.5-fold
EC50 (mGluR5 receptors; Table A3, given in brackets where Ki is n.d., read-out: r EC50): 51.1 nM
Structure (SMILES): CC(C)S(=O)(=O)N1CCc2ncc(C#Cc3ccccc3)cc2C1 [Example 81, 6-(Isopropylsulfonyl)-3-(phenylethynyl)-5,6,7,8-tetrahydro-1,6-naphthyridine]

IC50 [1]: 194 nM
Structure (SMILES): CCN(CC)C(=O)N1CCc2ncc(C#Cc3cccc(C#N)c3)cc2C1 [Example 48, 3-((3-Cyanophenyl)ethynyl)-N,N-diethyl-7,8-dihydro-1,6-naphthyridine-6(5H)-carboxamide]

h left shift [1, 2]: 5.3-fold
EC50 ([1]; Table A1): 4 nM
r left shift (mGluR5 receptors; [3]): 11.7-fold
EC50 (mGluR5 receptors; [4]): 132 nM
Structure (SMILES): CC(C)CN1CCO[C@@H]2c3cc(C#Cc4ccccc4)cnc3CC[C@@H]21 (racemic) [Example 23, (rac)-cis-4-Isobutyl-9-(phenylethynyl)-3,4,4a,5,6,10b-hexahydro-2H-[1,4]oxazino[2,3-f]quinoline]

IC50 [1]: 341 nM
Structure (SMILES): COC1CC(C)(C)Cc2ncc(C#Cc3ccccc3)cc21 (racemic) [Example 4, (rac)-5-Methoxy-7,7-dimethyl-3-(phenylethynyl)-5,6,7,8-tetrahydroquinoline]

h left shift [1, 2]: 2.2-fold
EC50 ([1]; Table A1): 146 nM
r left shift (mGluR5 receptors; [3]): 1.2-fold
EC50 (mGluR5 receptors; [4]): 4.36 nM
Structure (SMILES): CC(C)COC(=O)N1CCc2ncc(C#Cc3ccccc3)cc2C1 [Example 41, Isobutyl 3-(phenylethynyl)-7,8-dihydro-1,6-naphthyridine-6(5H)-carboxylate]

IC50 [1]: 617 nM
Structure (SMILES): CC(C)(C)C(=O)N1CCc2ncc(C#Cc3cccc(N)n3)cc2C1 [Example 35, 1-(3-((6-Aminopyridin-2-yl)ethynyl)-7,8-dihydro-1,6-naphthyridin-6(5H)-yl)-2,2-dimethylpropan-1-one]

h left shift [1, 2]: 1.7-fold
EC50 ([1]; Table A1): 2020 nM
EC50 (mGluR5 receptors; [4]): 2050 nM
Structure (SMILES): CN1CCN(S(=O)(=O)N2CCc3ncc(C#Cc4ccccc4)cc3C2)CC1 [Example 78, 6-((4-Methylpiperazin-1-yl)sulfonyl)-3-(phenylethynyl)-5,6,7,8-tetrahydro-1,6-naphthyridine]

IC50 [1]: 114 nM
IC50 (mGluR5 receptors; Table A2, pre-incubated 10 minutes before L-quisqualate (100 nM), read-out: rIC50): 55.9 nM
Structure (SMILES): CN(C)C(=O)N1CCc2ncc(C#Cc3cccc(F)c3)cc2C1 [Example 45, 3-((3-Fluorophenyl)ethynyl)-N,N-dimethyl-7,8-dihydro-1,6-naphthyridine-6(5H)-carboxamide]

IC50 [1]: 203 nM
Structure (SMILES): COC1CC(C)(C)Oc2ncc(C#Cc3cccc(N)n3)cc21 (racemic) [Example 7, (rac)-6-((4-Methoxy-2,2-dimethyl-3,4-dihydro-2H-pyrano[2,3-b]pyridin-6-yl)ethynyl)pyridin-2-amine]

IC50 [1]: 190 nM
Structure (SMILES): CN1CCC2Cc3ncc(C#Cc4ccccc4)cc3CN2C1=O (racemic) [Example 57, (rac)-8-Methyl-3-(phenylethynyl)-9,10,10a,11-tetrahydro-5H-pyrimido[1,6-g][1,6]naphthyridin-7(8H)-one]

IC50 [1]: 132 nM
Structure (SMILES): COC(=O)N1Cc2cc(C#Cc3cccc(F)c3)cnc2[C@H]2CCC[C@H]21 (racemic) [Example 61, (rac)-cis-Methyl 3-((3-fluorophenyl)ethynyl)-7,8,9,9a-tetrahydro-5H-cyclopenta[h][1,6]naphthyridine-6(6aH)-carboxylate]

h left shift [1, 2]: 1.8-fold
Structure (SMILES): O=C1NCC2(CCCc3ncc(C#Cc4ccccc4)cc32)O1 (racemic) [Example 10, (rac)-3'-(Phenylethynyl)-7',8'-dihydro-6'H-spiro[oxazolidine-5,5'-quinolin]-2-one]

IC50 [1]: 261 nM
Structure (SMILES): CN(C)C(=O)N1CCc2ncc(C#Cc3cccc(N)n3)cc2C1 [Example 47, 3-((6-Aminopyridin-2-yl)ethynyl)-N,N-dimethyl-7,8-dihydro-1,6-naphthyridine-6(5H)-carboxamide]

h left shift [1, 2]: 1.6-fold
EC50 ([1]; Table A1): 971 nM
Structure (SMILES): CC1(C)c2cc(C#Cc3ccccc3)cnc2CCS1(=O)=O [Example 75, 5,5-Dimethyl-3-(phenylethynyl)-7,8-dihydro-5H-thiopyrano[4,3-b]pyridine 6,6-dioxide]

IC50 [1]: 1320 nM
Structure (SMILES): COC(=O)N1Cc2cc(C#Cc3cccc(F)c3)cnc2[C@H]2CCCC[C@H]21 (racemic) [Example 63, (rac)-cis-Methyl 3-((3-fluorophenyl)ethynyl)-6a,7,8,9,10,10a-hexahydrobenzo[h][1,6]naphthyridine-6(5H)-carboxylate]

IC50 [1]: 225 nM
Structure (SMILES): COC1CC(C)(C)Oc2ncc(C#Cc3cn4ccccc4n3)cc21 (racemic) [Example 8, (rac)-6-(Imidazo[1,2-a]pyridin-2-ylethynyl)-4-methoxy-2,2-dimethyl-3,4-dihydro-2H-pyrano[2,3-b]pyridine]

IC50 [1]: 247 nM
Structure (SMILES): CN(C)C(=O)N1CCc2ncc(C#Cc3ccccc3)cc2C1 [Example 44, N,N-Dimethyl-3-(phenylethynyl)-7,8-dihydro-1,6-naphthyridine-6(5H)-carboxamide]

IC50 [1]: 75.5 nM
Structure (SMILES): Cc1cccc(C#Cc2cnc3c(c2)CS(=O)(=O)CC3)c1 [Example 68, 3-(m-Tolylethynyl)-7,8-dihydro-5H-thiopyrano[4,3-b]pyridine 6,6-dioxide]

IC50 [1]: 4230 nM
Structure (SMILES): COC1CCCc2ncc(C#Cc3cccc(N)n3)cc21 (racemic) [Example 3, (rac)-6-((5-Methoxy-5,6,7,8-tetrahydroquinolin-3-yl)ethynyl)pyridin-2-amine]

IC50 [1]: 695 nM
Structure (SMILES): COC1CC(C)(C)Cc2ncc(C#Cc3cn4ccccc4n3)cc21 (racemic) [Example 6, (rac)-3-(Imidazo[1,2-a]pyridin-2-ylethynyl)-5-methoxy-7,7-dimethyl-5,6,7,8-tetrahydroquinoline]

IC50 [1]: 1400 nM
Structure (SMILES): COC(=O)N1Cc2cc(C#Cc3ccccc3)cnc2[C@H]2CCCC[C@H]21 (racemic) [Example 62, (rac)-cis-Methyl 3-(phenylethynyl)-6a,7,8,9,10,10a-hexahydrobenzo[h][1,6]naphthyridine-6(5H)-carboxylate]
